# Measurements: patent US7227020B2, “Azaindoles” (Aventis Pharma Limited, priority 1999, dated 2007)
row,Structure (SMILES),melting point
1,"CC(C)(C)c1ccc(-c2[nH]c3nccnc3c2CCCO)cc1 [Example 26, 3-[6-(4-tert-Butyl-phenyl)-5H-pyrrolo[2,3-b]pyrazin-7-yl]-propan-1-ol]",187 to 189 °C
2,"Cn1cc(-c2cc3cccnc3[nH]2)c2cc(N)ccc21 [Example 18, 1-Methyl-3-(1H-pyrrolo[2,3-b]pyridin-2-yl)-1H-indol-5-ylamine]",247 to 248 °C
3,"CCOC(=O)COc1cc(-c2cc3nccnc3[nH]2)ccc1OC [Example 27, [2-Methoxy-5-(5H-pyrrolo[2,3-b]pyrazin-6-yl)-phenoxy]acetic acid ethyl ester]",183 to 184 °C

# Now from value to compound:
row,melting point,Structure (SMILES)
1,263 to 267 °C,"COc1ccc2c(c1)c(-c1cc3nccnc3[nH]1)cn2CC(=O)N1CCOCC1 [Example 12, 2-[5-Methoxy-3-(5H-pyrrolo[2,3-b]pyrazin-6-yl)-indol-1-yl]-1-morpholin-4-yl-ethanone]"
2,268 to 271 °C,"COc1ccc2[nH]cc(-c3cc4nccnc4[nH]3)c2c1 [Example 11, 6-(5-Methoxy-1H-indol-3-yl)-5H-pyrrolo[2,3-b]pyrazine]"
3,208 to 209 °C,"c1cncc(OCCCn2cc(-c3cc4nccnc4[nH]3)c3ccccc32)c1 [Example 6, 6-{1-[3-(Pyridin-3-yloxy)-propyl]-1H-indol-3-yl}-5H-pyrrolo[2,3-b]pyrazine]"
